Our source for the GI50 values is patent US9475839B2, “Peptide-based inhibitor of interleukin-10 or interferon-gamma signaling” (THE UNITED STATES OF AMERICA, AS REPRESENTED BY THE …, priority 2010, dated 2016).

For orientation: GI50 means the concentration at which growth is held to half of that of the control.

SMILES strings stand for the structures. Non-standard residues stand in square brackets, D forms with d. Residues, ends and D or L forms follow the SMILES beside them. *: point of attachment. Palmitoyl = CCCCCCCCCCCCCCCC(=O)*

The first experiment relates to MDA-MB-231 breast cancer cells. Briefly: Inhibition of IFN-gamma-dependent growth of MDA-MB-231 cells, MTT assay, 48 hours. It counts as cell-based. To be noted: 48 h.
Protocol: Cells were exposed to compounds for 48 hours and cell number was determined with the help of MTT assay.
Cells were exposed to IL10-HF-1 for 48 hours and cell number was determined with the help of MTT assay.
Peptides designed to mimic conserved regions of the receptor sequences were tested for the ability to inhibit IL10 and IFN-gamma signaling. Inhibition of IL10 signaling was tested in a mouse mast cell line MC/9. […] Abrogation of IFN-gamma signaling or STAT1 activation causes cell death in this cell line.
The compound `CCCCCCCCCCCCCCCC(=O)N[C@@H](Cc1ccccc1)C(=O)N[C@@H](Cc1ccc(O)cc1)C(=O)N[C@H](C(=O)N[C@@H](CCCCN)C(=O)N[C@@H](CCCCN)C(=O)N[C@H](C(=O)N[C@@H](CC(N)=O)C(=O)N1CCC[C@H]1C(=O)N[C@@H](CC(C)C)C(=O)N[C@@H](CCCCN)C(=O)N[C@@H](CCC(=O)O)C(=O)N[C@@H](CCCCN)C(=O)N[C@@H](CO)C(=O)N[C@H](C(=O)N[C@H](C(=O)N[C@@H](CC(C)C)C(=O)N1CCC[C@H]1C(=O)N[C@@H](CCCCN)C(=O)N[C@@H](CO)C(N)=O)[C@@H](C)CC)[C@@H](C)CC)[C@@H](C)CC)[C@@H](C)CC` [IFNGR1-1, ε-Pal-FYIKKINPLKEKSIILPKS-NH2] (Palmitoyl-FYIKKINPLKEKSIILPKS-NH2) gave a GI50 of over 25000 nM. `CCCCCCCCCCCCCCCC(=O)N1CCC[C@H]1C(=O)N[C@@H](CC(C)C)C(=O)N[C@@H](CCCCN)C(=O)N[C@@H](CCC(=O)O)C(=O)N[C@@H](CCCCN)C(=O)N[C@@H](CO)C(=O)N[C@H](C(=O)N[C@H](C(=O)N[C@@H](CC(C)C)C(=O)N1CCC[C@H]1C(=O)N[C@@H](CCCCN)C(=O)N[C@@H](CO)C(=O)N[C@@H](CC(C)C)C(=O)N[C@@H](CC(C)C)C(=O)N[C@@H](CO)C(=O)N[C@H](C(=O)N[C@H](C(=O)N[C@@H](CCCNC(=N)N)C(N)=O)C(C)C)C(C)C)[C@@H](C)CC)[C@@H](C)CC` [IFNGR1-3, ε-Pal-PLKEKSIILPKSLLSVVR-NH2] (Palmitoyl-PLKEKSIILPKSLLSVVR-NH2) registered a GI50 of 50 nM. As to `CCCCCCCCCCCCCCCC(=O)N[C@H](C(=O)N[C@@H](CC(C)C)C(=O)N1CCC[C@H]1C(=O)N[C@@H](CCCCN)C(=O)N[C@@H](CO)C(=O)N[C@@H](CC(C)C)C(=O)N[C@@H](CC(C)C)C(=O)N[C@@H](CO)C(=O)N[C@H](C(=O)N[C@H](C(=O)N[C@@H](CCCNC(=N)N)C(=O)N[C@@H](CO)C(=O)N[C@@H](C)C(=O)N[C@H](C(N)=O)[C@@H](C)O)C(C)C)C(C)C)[C@@H](C)CC` [IFNGR1-4, ε-Pal-ILPKSLLSVVRSAT-NH2] (Palmitoyl-ILPKSLLSVVRSAT-NH2), growth was halved (GI50) at 2500 nM.

Turning to `CCCCCCCCCCCCCCCC(=O)NCCCC[C@H](N)C(=O)NCC(=O)N[C@@H](CCCCN)C(=O)N[C@@H](CCC(=O)O)C(=O)N[C@@H](CO)C(=O)N[C@@H](CC(C)C)C(=O)N[C@H](C(=O)NCC(=O)N[C@@H](Cc1ccc(O)cc1)C(=O)N[C@@H](CCCNC(=N)N)C(=O)N1CCC[C@H]1C(=O)N[C@H](C(N)=O)[C@@H](C)O)[C@@H](C)CC` [IFNGR1-6, ε-Pal-KGKESLIGYRPT-NH2] (H-K(Palmitoyl)GKESLIGYRPT-NH2; N-terminus assumed), it took 70 nM to inhibit growth by half (GI50). In turn, `CCCCCCCCCCCCCCCC(=O)NCCCC[C@H](N)C(=O)NCC(=O)N[C@@H](Cc1ccc(O)cc1)C(=O)N[C@@H](CC(=O)O)C(=O)N[C@@H](CCCCN)C(=O)N1CCC[C@H]1C(=O)N[C@@H](Cc1c[nH]cn1)C(=O)N[C@H](C(=O)N[C@@H](CC(C)C)C(=O)N[C@H](C(=O)N[C@@H](CC(=O)O)C(=O)N[C@@H](CC(C)C)C(=O)N[C@@H](CC(C)C)C(=O)N[C@H](C(=O)N[C@@H](CC(=O)O)C(N)=O)C(C)C)C(C)C)C(C)C` [IFNGR1-7, ε-Pal-KGYDKPHVLVDLLVD-NH2] (H-K(Palmitoyl)GYDKPHVLVDLLVD-NH2; N-terminus assumed) gave a GI50 of 1000 nM. The same measure, in the same setting: then `CCCCCCCCCCCCCCCC(=O)NCCCC[C@H](N)C(=O)N[C@@H](CO)C(=O)N[C@H](C(=O)N[C@@H](C)C(=O)N[C@@H](CC(C)C)C(=O)N[C@@H](CC(N)=O)C(=O)N[C@@H](CO)C(=O)N[C@@H](Cc1ccc(O)cc1)C(=O)N[C@@H](Cc1c[nH]cn1)C(=O)N[C@@H](CO)C(=O)N[C@@H](CCCNC(=N)N)C(=O)N[C@@H](CC(N)=O)C(N)=O)[C@@H](C)CC` [IFNGR1-8, ε-Pal-KSIALNSYHSRN-NH2] (H-K(Palmitoyl)SIALNSYHSRN-NH2; N-terminus assumed), with 5000 ± 1000 nM; and `CCCCCCCCCCCCCCCC(=O)NCCCC[C@H](N)C(=O)NCC(=O)NCC(=O)N[C@@H](CCCCN)C(=O)N[C@@H](CCC(=O)O)C(=O)N[C@@H](CO)C(=O)N[C@@H](CC(C)C)C(=O)N[C@H](C(=O)NCC(=O)N[C@@H](Cc1ccc(O)cc1)C(=O)N[C@@H](CCCNC(=N)N)C(N)=O)[C@@H](C)CC` [IFNGR1-10, ε-Pal-KGGKESLIGYR-NH2] (H-K(Palmitoyl)GGKESLIGYR-NH2; N-terminus assumed), with 2500 nM. `CCCCCCCCCCCCCCCC(=O)NCCCC[C@H](N)C(=O)NCC(=O)N[C@@H](CCCCN)C(=O)N[C@@H](CCC(=O)O)C(=O)N[C@@H](CO)C(=O)N[C@@H](CC(C)C)C(=O)N[C@H](C(=O)NCC(=O)N[C@@H](Cc1ccc(O)cc1)C(=O)N[C@@H](CCCNC(=N)N)C(N)=O)[C@@H](C)CC` [IFNGR1-11, ε-Pal-KGKESLIGYR-NH2] (H-K(Palmitoyl)GKESLIGYR-NH2; N-terminus assumed) displayed a GI50 of 2000 nM. The same measure, in the same setting: then `CCCCCCCCCCCCCCCC(=O)NCCCC[C@H](N)C(=O)NCC(=O)N[C@@H](Cc1ccc(O)cc1)C(=O)N[C@@H](CC(=O)O)C(=O)N[C@@H](CCCCN)C(=O)N1CCC[C@H]1C(=O)N[C@@H](Cc1c[nH]cn1)C(=O)N[C@H](C(=O)N[C@@H](CC(C)C)C(=O)N[C@H](C(N)=O)C(C)C)C(C)C` [IFNGR1-12, ε-Pal-KGYDKPHVLV-NH2] (H-K(Palmitoyl)GYDKPHVLV-NH2; N-terminus assumed), with 600 nM; and `CCCCCCCCCCCCCCCC(=O)NCCCC[C@H](N)C(=O)N[C@@H](CC(C)C)C(=O)N[C@@H](CC(N)=O)C(=O)N[C@@H](CO)C(=O)N[C@@H](Cc1ccc(O)cc1)C(=O)N[C@@H](Cc1c[nH]cn1)C(=O)N[C@@H](CO)C(=O)N[C@@H](CCCNC(=N)N)C(=O)N[C@@H](CC(N)=O)C(=O)NCC(=O)N[C@@H](CO)C(N)=O` [IFNGR1-13, ε-Pal-KLNSYHSRNGS-NH2] (H-K(Palmitoyl)LNSYHSRNGS-NH2; N-terminus assumed), with 4500 nM; and `CCCCCCCCCCCCCCCC(=O)NCCCC[C@H](N)C(=O)NCC(=O)N[C@@H](Cc1ccc(O)cc1)C(=O)N[C@@H](CC(=O)O)C(=O)N[C@@H](CCCCN)C(=O)N1CCC[C@H]1C(=O)N[C@@H](Cc1c[nH]cn1)C(=O)N[C@H](C(N)=O)C(C)C` [IFNGR1-15, ε-Pal-KGYDKPHV-NH2] (H-K(Palmitoyl)GYDKPHV-NH2; N-terminus assumed), with 1600 nM. Turning to `CCCCCCCCCCCCCCCC(=O)NCCCC[C@H](N)C(=O)N[C@@H](CCCCN)C(=O)N[C@@H](Cc1ccc(O)cc1)C(=O)N[C@@H](CCC(N)=O)C(=O)N[C@@H](CO)C(=O)N[C@@H](CCCNC(=N)N)C(=O)N[C@H](C(=O)N[C@@H](CCCCN)C(=O)N[C@@H](Cc1ccc(O)cc1)C(=O)N[C@@H](Cc1c[nH]c2ccccc12)C(=O)N[C@@H](Cc1ccccc1)C(=O)N[C@@H](CCC(N)=O)C(=O)N[C@@H](C)C(=O)N1CCC[C@H]1C(=O)N1CCC[C@H]1C(=O)N[C@@H](CC(N)=O)C(=O)N[C@H](C(=O)N1CCC[C@H]1C(=O)O)[C@@H](C)CC)C(C)C` [IFNGR2-1, ε-Pal-KKYQSRVKYWFQAPPNIP] (H-K(Palmitoyl)KYQSRVKYWFQAPPNIP-OH; N-terminus and C-terminus assumed), growth was halved (GI50) at 5000 nM.

The experiment is the same for the next values; noted with them: Table 1; MTT assay after 48 hours exposure; concentration causing 50% inhibition in cell growth; read-out: GI50, MDA-MB-231.
Turning to `CCCCCCCCCCCCCCCC(=O)NCCCC[C@@H](NC(=O)[C@@H](CCCCN)NC(=O)[C@@H](CC(C)C)NC(=O)[C@H]1CCCN1C(=O)[C@@H](CO)NC(=O)[C@H](NC(=O)[C@@H](CC(C)C)NC(=O)[C@@H](CC(C)C)NC(=O)[C@@H](Cc1ccccc1)NC(=O)[C@@H](CCCCN)NC(=O)[C@@H](CCCCN)NC(=O)[C@H]1CCCN1C(=O)[C@@H](CO)NC(C)=O)C(C)C)C(N)=O` [IL10R1-9, Ac-SPKKFLLVSPLKK-ε-Pal] (Ac-[dS][dP][dK][dK][dF][dL][dL][dV][dS][dP][dL][dK][dK](Palmitoyl)-NH2; C-terminus assumed), the GI50 worked out at 1000 nM.

As for `CCCCCCCCCCCCCCCC(=O)NCCCC[C@@H](NC(=O)[C@@H](CCCCN)NC(=O)[C@@H](CC(C)C)NC(=O)[C@H]1CCCN1C(=O)[C@@H](CO)NC(=O)[C@H](NC(=O)[C@@H](CC(C)C)NC(=O)[C@@H](CC(C)C)NC(=O)[C@@H](Cc1ccccc1)NC(=O)[C@@H](CCCCN)NC(=O)[C@@H](CCCCN)NC(C)=O)C(C)C)C(N)=O` [IL10R1-10, Ac-KKFLLVSPLKK-ε-Pal] (Ac-[dK][dK][dF][dL][dL][dV][dS][dP][dL][dK][dK](Palmitoyl)-NH2; C-terminus assumed), the GI50 came out at 1000 nM.

In the case of `CCCCCCCCCCCCCCCC(=O)NCCCC[C@@H](NC(=O)[C@@H](CCCCN)NC(=O)[C@@H](CC(C)C)NC(=O)[C@H]1CCCN1C(=O)[C@@H](CO)NC(=O)[C@H](NC(=O)[C@@H](CC(C)C)NC(=O)[C@@H](CC(C)C)NC(=O)[C@@H](Cc1ccccc1)NC(=O)[C@@H](CCCCN)NC(=O)[C@@H](CCCCN)NC(=O)[C@H]1CCCN1C(C)=O)C(C)C)C(N)=O` [IL10R1-11, Ac-PKKFLLVSPLKK-ε-Pal] (Ac-[dP][dK][dK][dF][dL][dL][dV][dS][dP][dL][dK][dK](Palmitoyl)-NH2; C-terminus assumed), the GI50 was 1000 nM.

The same experiment, now with this note: Table 3; MDA-MB-231 breast cancer cell line growth; regions B, C, D of IFNGR1; read-out: GI50.
Turning to `CCCCCCCCCCCCCCCC(=O)NCCCC[C@H](N)C(=O)N[C@@H](Cc1ccccc1)C(=O)NCC(=O)N[C@@H](Cc1ccc(O)cc1)C(=O)N[C@@H](CC(=O)O)C(=O)N[C@@H](CCCCN)C(=O)N1CCC[C@H]1C(=O)N[C@@H](Cc1c[nH]cn1)C(=O)N[C@H](C(N)=O)C(C)C` [IFNGR1-16, ε-Pal-KFGYDKPHV-NH2] (H-K(Palmitoyl)FGYDKPHV-NH2; N-terminus assumed), the GI50 amounted to 2100 nM.
